# Test results as given in patent publication US20200368336A1, “METHOD FOR PREPARING PERSONALIZED CANCER VACCINE” (SHANGHAI JENOMED BIOTECH CO., LTD., priority 2017, published 2020).
# Tested on: mouse MHC molecule (MHC class I molecules)
# Assay: predicted affinity of short peptide chain to mouse MHC molecule (correlation analysis software)
# Conditions: mutant vs wild-type
# Method: The tumor neoantigen of mice were analyzed by the following methods: mouse H-2 typing software was used to classify mouse H-2 molecules, and using software such as Sentieon TNscope, the DNA exome sequencing sequence of the peripheral blood mononuclear cells of cancer-bearing mice was used as a control to isolate tumor neoantigen from the sequencing sequence of CTC DNA exome of cancer-bearing mice, and the correlation analysis software was used to predict the affinity of the short peptide chain tumor neoantigen and its corresponding wild-type short peptide chain to the mouse MHC molecule.
sequence,measurement,value
KAIRNVLII [preferred tumor neoantigen peptide screened from CTC of cancer-bearing mice],affinity of neoantigen higher than that of corresponding wild-type short peptide chain,about 556 times
